Experimental data published in patent US8877800B2, “Kappa-opiate agonists for the treatment of diarrhea-predominant irritable bowel syndrome” (Tioga Pharmaceuticals, Inc., priority 2007, dated 2014).

Experiments:
mu opiate receptor = mu opiate receptor (Homo sapiens, UniProt P35372); test: selectivity: IC50 at mu opiate receptor relative to kappa; assay type: binding; conditions: ratio kappa:mu:delta
kappa-opiate receptor = kappa-opiate receptor (Homo sapiens, UniProt P41145); conditions: read-out: affinity for the kappa-opiate receptor, IC50; cited from earlier work
[1] = cited from earlier work
delta opiate receptor = delta opiate receptor (Homo sapiens, UniProt P41143); test: selectivity: IC50 at delta opiate receptor relative to kappa; assay type: binding; conditions: ratio kappa:mu:delta
[2] = test system: gastric and colon distention; conditions: animal models; cited from earlier work
[3] = test system: IBS-D, IBS-C and IBS-A patients; test: Example 2: 12-week randomized, double-blind, dose-ranging, placebo-controlled fixed-dose asimadoline study in IBS; assay type: in vivo, human; conditions: for urgency: all three months; for improvement over placebo in percent number of months with adequate relief / percent number of months with adequate relief of IBS pain or discomfort: all IBS subjects with moderate or severe pain
Method: Diarrhea-predominant (IBS-D), constipation-predominant (IBS-C), and alternating IBS (IBS-A) patients were recruited from 120 sites in the United States. Patients underwent a two week screening period to ensure adequate symptoms and compliance with the interactive voice response system (IVRS) data collection system, followed by twelve weeks of treatment and a four week follow-up period. Patients received identical appearing placebo, 0.15 mg, 0.5 mg or 1.0 mg asimadoline tablets b.i.d. for the 12 week treatment period. During screening, treatment and follow-up patients entered data every day on the IVRS.
The primary endpoint was the number of months a patient was a responder for adequate relief, where the primary measure was the question, “In the past 7 days have you had adequate relief of your IBS pain or discomfort?” This measure was asked once every 7 days and a monthly responder replied “yes” at least 3 weeks per month. Numerous secondary endpoints, abdominal pain or discomfort, stool frequency, urgency, bloating, stool consistency, adequate relief of IBS symptoms and straining were also collected. Additionally, adverse clinical events, laboratory test data and electrocardiograms (ECGs) were collected.
Of the 596 subjects who were randomized, 344 reported baseline pain scores of 2.0 or higher. The pain score was a self reported score on a scale of 0-3, where 0=no pain, 1=mild pain, 2=moderate pain and 3=severe pain Subjects having scores of 2.0 or higher were categorized as having moderate or severe pain. Of the 344 moderate or severe pain subjects, 104 were classified as having IBS-D, 114 IBS-A and 126 IBS-C.

[4] = moisture, heat, aerial oxygen, light; cited from earlier work
[5] = cited from earlier work; remark: listed apart in the source
patients with IBS = test: Example 1: randomized, double-blind, placebo controlled 4-week on-demand asimadoline study in participants with IBS; conditions: for Δ Pain intensity (mean ± SE): VAS, 2 hours after first dose
IBS patients = conditions: Bardhan et al., Aliment Pharmacol Ther 2000; 14:23-34; cited from earlier work

Sequence of mu opiate receptor (P35372 whole entry): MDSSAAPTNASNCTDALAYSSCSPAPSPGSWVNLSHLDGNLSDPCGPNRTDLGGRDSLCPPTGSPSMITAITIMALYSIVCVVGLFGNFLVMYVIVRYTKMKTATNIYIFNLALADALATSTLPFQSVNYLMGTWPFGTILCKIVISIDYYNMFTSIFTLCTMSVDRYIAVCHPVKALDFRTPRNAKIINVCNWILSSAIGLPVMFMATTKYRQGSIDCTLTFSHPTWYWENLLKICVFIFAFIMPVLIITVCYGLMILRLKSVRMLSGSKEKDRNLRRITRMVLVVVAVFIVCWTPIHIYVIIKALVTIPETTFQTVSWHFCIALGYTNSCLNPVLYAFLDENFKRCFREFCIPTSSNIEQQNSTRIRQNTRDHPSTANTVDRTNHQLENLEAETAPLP
Sequence of delta opiate receptor (P41143 whole entry): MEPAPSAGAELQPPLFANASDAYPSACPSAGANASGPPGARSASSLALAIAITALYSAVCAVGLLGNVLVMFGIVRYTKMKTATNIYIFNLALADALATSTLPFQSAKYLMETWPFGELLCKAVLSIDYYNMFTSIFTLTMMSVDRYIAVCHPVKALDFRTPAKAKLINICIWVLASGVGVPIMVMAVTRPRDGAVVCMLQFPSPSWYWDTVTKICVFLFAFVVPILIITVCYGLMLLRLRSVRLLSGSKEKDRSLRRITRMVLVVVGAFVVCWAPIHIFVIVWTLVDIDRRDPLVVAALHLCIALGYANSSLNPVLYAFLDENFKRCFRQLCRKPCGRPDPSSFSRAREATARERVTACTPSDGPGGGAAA
Sequence of kappa-opiate receptor (P41145 whole entry): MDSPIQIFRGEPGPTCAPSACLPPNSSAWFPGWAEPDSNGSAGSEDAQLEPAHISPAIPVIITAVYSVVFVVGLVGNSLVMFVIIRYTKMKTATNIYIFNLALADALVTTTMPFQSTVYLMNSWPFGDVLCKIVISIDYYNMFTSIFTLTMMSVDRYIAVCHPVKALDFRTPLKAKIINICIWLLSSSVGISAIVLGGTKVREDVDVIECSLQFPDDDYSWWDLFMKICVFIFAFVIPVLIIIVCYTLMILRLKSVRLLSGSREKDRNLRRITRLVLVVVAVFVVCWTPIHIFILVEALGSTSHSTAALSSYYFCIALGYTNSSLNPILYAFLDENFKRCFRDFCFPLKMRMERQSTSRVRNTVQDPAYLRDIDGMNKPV

SMILES: CN(C(=O)C(c1ccccc1)c1ccccc1)[C@H](CN1CC[C@H](O)C1)c1ccccc1.Cl [Asimadoline, N-[(1S)-2-[(3S)-3-hydroxypyrrolidin-1-yl]-1-phenylethyl]-N-methyl-2,2-diphenylacetamide, hydrochloride]
- ratio of IC50 values, mu relative to kappa (kappa = 1) (mu opiate receptor): ~501
- IC50 (kappa-opiate receptor): 1.2 nM
- bioavailability ([1]; fasting subjects): 50%
- effect of eating on bioavailability ([1]; food interaction studies): eating does not substantially impact bioavailability
- half-life ([1]; in vivo): 2 to 3 h
- penetration of the blood-brain barrier ([1]; in vivo): poor penetration of the blood-brain barrier
- ratio of IC50 values, delta relative to kappa (kappa = 1) (delta opiate receptor): ~498
- sensation responses to gastric and colon distention [2]: reduce sensation responses
- Adverse events: Abdominal pain ([3]; 0.15 mg b.i.d.): 5.4%
- Adverse events: Constipation ([3]; 0.15 mg b.i.d.): 12.8%
- Adverse events: Diarrhea ([3]; 0.15 mg b.i.d.): 13.4%
- Adverse events: Dizziness ([3]; 0.15 mg b.i.d.): 2.7%
- Adverse events: Headache ([3]; 0.15 mg b.i.d.): 9.4%
- Adverse events: Nausea ([3]; 0.15 mg b.i.d.): 5.4%
- Adverse events: Sinusitis ([3]; 0.15 mg b.i.d.): 4.7%
- Adverse events: Abdominal pain ([3]; 0.5 mg b.i.d.): 4.6%
- Adverse events: Constipation ([3]; 0.5 mg b.i.d.): 10.5%
- Adverse events: Diarrhea ([3]; 0.5 mg b.i.d.): 5.9%
- Adverse events: Dizziness ([3]; 0.5 mg b.i.d.): 1.3%
- Adverse events: Headache ([3]; 0.5 mg b.i.d.): 4.6%
- Adverse events: Nausea ([3]; 0.5 mg b.i.d.): 8.6%
- Adverse events: Sinusitis ([3]; 0.5 mg b.i.d.): 2.6%
- Adverse events: Abdominal pain ([3]; 1.0 mg b.i.d.): 4.2%
- Adverse events: Constipation ([3]; 1.0 mg b.i.d.): 7.6%
- Adverse events: Diarrhea ([3]; 1.0 mg b.i.d.): 11.1%
- Adverse events: Dizziness ([3]; 1.0 mg b.i.d.): 2.1%
- Adverse events: Headache ([3]; 1.0 mg b.i.d.): 5.6%
- Adverse events: Nausea ([3]; 1.0 mg b.i.d.): 2.8%
- Adverse events: Sinusitis ([3]; 1.0 mg b.i.d.): 6.3%
- serious clinical or laboratory adverse events related to the treatment ([3]; 0.15, 0.5 or 1.0 mg b.i.d., 12 weeks): No serious clinical or laboratory adverse events
- pain scores ([3]; IBS-A subjects at these dosages): No statistically significant improvement
- percent months with adequate relief of IBS pain or discomfort ([3]; IBS-A, moderate or severe pain, 1.0 mg b.i.d., placebo 27%, p=0.022): 50%
- proportion of months with adequate relief of overall IBS symptoms ([3]; IBS-A, moderate or severe pain, 1.0 mg b.i.d., placebo 30%, p=0.032): 57%
- percentage of monthly responders (adequate relief of pain or discomfort) ([3]; IBS-A, 1.0 mg b.i.d., first month, placebo 19%, p=0.017): 46%
- abdominal pain or discomfort associated with IBS ([3]; IBS-C subjects with moderate or severe pain): no statistically significant improvement
- stool consistency ([3]; IBS-D and IBS-C subjects, any of the three dosages): no statistically significant changes
- bloating ([3]; IBS-D, baseline pain scores ≧2.0, 1.0 mg, second month): statistically significant reductions
- percent months with adequate relief of IBS pain or discomfort ([3]; IBS-D, moderate or severe pain, 0.5 mg b.i.d., placebo 20%, p=0.011): 47%
- proportion of months with adequate relief of overall IBS symptoms ([3]; IBS-D, moderate or severe pain, 0.5 mg b.i.d., placebo 23%, p=0.038): 47%
- urgency ([3]; IBS-D, moderate or severe pain, 0.5 mg): statistically significant reductions
- daily stool frequency ([3]; IBS-D, moderate or severe pain, 0.5 mg, from week 3 to end of treatment): dramatic decrease
- bloating ([3]; IBS-D, moderate or severe pain, 0.5 mg, second and third months): Significant reductions
- proportion of months with adequate relief of overall IBS symptoms ([3]; IBS-D, moderate or severe pain, 1.0 mg b.i.d., placebo 23%, p=0.039): 43%
- urgency ([3]; IBS-D, moderate or severe pain, 1.0 mg): statistically significant reductions
- improvement in the percentage of pain-free days over placebo ([3]; IBS-D, pain scores ≧2.0, 0.5 mg b.i.d., weeks 1-12): ~30%
- results in female versus male IBS-D subjects (adequate relief) ([3]; IBS-D, 0.5 mg): highly similar results
- percentage of monthly responders (adequate relief of pain or discomfort) ([3]; IBS-D, 0.5 mg b.i.d., month 1, placebo 20%, p=0.045): 48%
- percentage of monthly responders (adequate relief of pain or discomfort) ([3]; IBS-D, 0.5 mg b.i.d., month 2, placebo 18%, p=0.010): 52%
- percentage of monthly responders (adequate relief of pain or discomfort) ([3]; IBS-D, 0.5 mg b.i.d., month 3, placebo 27%, p=0.010): 50%
- pain scores ([3]; IBS-D, 0.5 mg, every week starting at week 3 and every month): statistically significant improvement
- more pain free days compared to placebo ([3]; IBS-D, 0.5 mg, over the 3 month study): 21 days
- pain scores ([3]; IBS-D, 1.0 mg, every month and six of the twelve weeks): statistically significant improvement
- improvement over placebo in percent number of months with adequate relief ([3]; 0.5 mg b.i.d.): 17%
- percent number of months with adequate relief of IBS pain or discomfort ([3]; 0.5 mg b.i.d., placebo 23%, p=0.006): 40%
- improvement over placebo in percent number of months with adequate relief ([3]; 1.0 mg b.i.d.): 17%
- percent number of months with adequate relief of IBS pain or discomfort ([3]; 1.0 mg b.i.d., placebo 23%, p=0.005): 40%
- tolerability ([3]; fixed dose, 12 weeks): well tolerated
- stability of the substance [4]: slightly sensitive to moisture, but stable against heat, aerial oxygen and light
- solubility in ethanol ([5]; ethanol): 5.4 g/L
- solubility in water ([5]; water): 11.6 g/L
- Proportion of days with adequate relief of symptoms (mean ± SE) (patients with IBS; IBS-A): 0.46 ± 0.08
- change in bowel movements per day, corrected for placebo change from baseline (patients with IBS; IBS-A): increase
- delta pain intensity scores relative to placebo (patients with IBS; IBS-A (alternators), p=0.003): significantly better than placebo
- Δ Pain intensity (mean ± SE) (patients with IBS; IBS-A, unadjusted p = 0.003 vs placebo): 37.8 ± 3.7 mm
- Δ mean # stools, treatment compared to baseline (patients with IBS; IBS-A, on-demand, 4 weeks): 0.0 ± 0.1
- Δ mean ease of passage, treatment compared to baseline (patients with IBS; IBS-A, on-demand, 4 weeks): 0.0 ± 0.1
- Δ mean stool form, treatment compared to baseline (patients with IBS; IBS-A, on-demand, 4 weeks): 0.2 ± 0.2
- Proportion of days with adequate relief of symptoms (mean ± SE) (patients with IBS; IBS-C): 0.11 ± 0.07
- change in bowel movements per day, corrected for placebo change from baseline (patients with IBS; IBS-C): increase
- Δ Pain intensity (mean ± SE) (patients with IBS; IBS-C): 23.8 ± 4.0 mm
- Δ mean ease of passage, treatment compared to baseline (patients with IBS; IBS-C, on-demand, 4 weeks): −0.1 ± 0.1
- Δ mean stool form, treatment compared to baseline (patients with IBS; IBS-C, on-demand, 4 weeks): 0.0 ± 0.2
- Proportion of days with adequate relief of symptoms (mean ± SE) (patients with IBS; IBS-D): 0.45 ± 0.08
- change in bowel movements per day, corrected for placebo change from baseline (patients with IBS; IBS-D): decrease
- Δ Pain intensity (mean ± SE) (patients with IBS; IBS-D): 25.0 ± 2.9 mm
- Δ mean # stools, treatment compared to baseline (patients with IBS; IBS-D, on-demand, 4 weeks): −0.3 ± 0.1
- Δ mean ease of passage, treatment compared to baseline (patients with IBS; IBS-D, on-demand, 4 weeks): −0.1 ± 0.1
- Δ mean stool form, treatment compared to baseline (patients with IBS; IBS-D, on-demand, 4 weeks): −0.1 ± 0.2
- Adverse events: Body as a whole (patients with IBS; on-demand, 4 weeks): 15.00%
- Adverse events: Central and peripheral nervous system (patients with IBS; on-demand, 4 weeks): 48.33%
- Adverse events: Gastrointestinal (patients with IBS; on-demand, 4 weeks): 16.67%
- Adverse events: Genitourinary (patients with IBS; on-demand, 4 weeks): 1.67%
- Adverse events: Musculoskeletal (patients with IBS; on-demand, 4 weeks): 6.67%
- Adverse events: Psychiatric (patients with IBS; on-demand, 4 weeks): 15.00%
- Adverse events: Respiratory (patients with IBS; on-demand, 4 weeks): 33.33%
- serious clinical or laboratory adverse events (patients with IBS; on-demand, 4 weeks): no serious clinical or laboratory adverse events
- tolerability (patients with IBS; on-demand, 4 weeks): well tolerated

SMILES: Cc1[nH]cnc1CN1CCc2c(c3ccccc3n2C)C1=O [LOTRONEX]
- improvement in the percentage of pain-free days (IBS patients): 10%
